Laboratory results from patent publication US11667602B2, “Compounds and their use” (AstraZeneca AB, priority 2020, dated 2023).
Values after ≈ are worked out from the molar mass of the structure shown. Like-named read-outs stand apart in the source and are kept apart here. Values belong to the molecule of their own block, whether it stands above or below them.

Assays:
[1] = Rat Hepatocyte Stability (Test E); format: in vitro ADME; settings: rat, hepatocytes, geometric mean if run multiple times
Procedure: Rat Hepatocyte Stability (Test E)
The assay was conducted according to the Rat Hepatocyte Stability Assay described in pages 170-174 of Wernevik, J. et al., “A Fully Integrated Assay Panel for Early Drug Metabolism and Pharmacokinetics Profiling”, Assay and Drug Development Technologies, 2020, 18(4), 157-179. Data are reported in Table 36 as mean Clint(μl/min/10^6 cells). Where the assay was run multiple times for the same compound, the geometric mean is reported.

[2] = molecular target: T1, human RXFP1 (Homo sapiens, UniProt Q9HBX9); experiment: RXFP1 Hu cAMP (Test A); format: cell-based; parameters: expressed in transfected cells; host or cells: Jump-In T-REx CHO-K1 cells (ThermoFisher), induced with 10 ng/ml doxycycline for 24 h
T1 sequence (Q9HBX9 1-757): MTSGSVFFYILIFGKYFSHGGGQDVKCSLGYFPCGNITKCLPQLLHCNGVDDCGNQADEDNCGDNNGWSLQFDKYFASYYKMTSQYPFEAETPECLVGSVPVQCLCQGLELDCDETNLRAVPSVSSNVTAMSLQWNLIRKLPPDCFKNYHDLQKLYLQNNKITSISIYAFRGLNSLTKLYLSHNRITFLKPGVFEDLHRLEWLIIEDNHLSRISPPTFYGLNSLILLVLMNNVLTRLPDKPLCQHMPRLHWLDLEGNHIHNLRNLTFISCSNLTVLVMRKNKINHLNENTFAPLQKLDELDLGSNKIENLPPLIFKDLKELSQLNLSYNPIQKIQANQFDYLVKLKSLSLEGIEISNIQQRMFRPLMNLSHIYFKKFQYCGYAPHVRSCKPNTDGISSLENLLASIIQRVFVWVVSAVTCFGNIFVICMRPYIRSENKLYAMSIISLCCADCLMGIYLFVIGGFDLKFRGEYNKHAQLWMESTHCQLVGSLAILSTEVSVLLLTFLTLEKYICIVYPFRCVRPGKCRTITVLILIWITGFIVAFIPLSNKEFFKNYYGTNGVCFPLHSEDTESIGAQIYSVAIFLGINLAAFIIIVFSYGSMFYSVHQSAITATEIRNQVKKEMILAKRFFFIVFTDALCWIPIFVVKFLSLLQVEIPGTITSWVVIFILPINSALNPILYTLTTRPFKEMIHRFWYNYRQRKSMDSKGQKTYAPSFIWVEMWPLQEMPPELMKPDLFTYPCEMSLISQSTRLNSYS
Summary of the method: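 Doxycycline-induced (10 ng/ml, 24 h) CHO-K1 cells stably expressing human RXFP1; cAMP read by competitive HTRF after 2 h at room temperature, with 0.5 mM IBMX final.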

[3] = Human Liver Microsomal Stability (Test C); format: in vitro ADME; settings: human, liver microsomes
Procedure: Human Liver Microsomal Stability (Test C)
The assay was conducted according to the Human Liver Microsome Stability Assay described in pages 170-174 of Wernevik, J. et al., “A Fully Integrated Assay Panel for Early Drug Metabolism and Pharmacokinetics Profiling”, Assay and Drug Development Technologies, 2020, 18(4), 157-179. Data are reported in Table 36 as CLint (μl/min/mg protein). Where the assay was run multiple times for the same compound, the arithmetic mean is reported.

[4] = Solubility (Test F); format: physicochemical; settings: arithmetic mean if run multiple times
Procedure: The assay was conducted according to the Solubility Assay described in pages 164-167 of Wernevik, J. et al., “A Fully Integrated Assay Panel for Early Drug Metabolism and Pharmacokinetics Profiling”, Assay and Drug Development Technologies, 2020, 18(4), 157-179. Data are reported in Table 36 as solubility ([…]. Where the assay was run multiple times for the same compound, the arithmetic mean is reported.

[5] = Human Plasma Protein Binding (Test B); format: in vitro ADME; settings: fraction unbound (fu)
Procedure: Human Plasma Protein Binding (Test B)
The assay was conducted according to the Human Plasma Protein Binding Assay described in pages 167-170 of Wernevik, J. et al., “A Fully Integrated Assay Panel for Early Drug Metabolism and Pharmacokinetics Profiling”, Assay and Drug Development Technologies, 2020, 18(4), 157-179. Data are reported in Table 36 as fraction unbound (fu) (% free). Where the assay was run multiple times for the same compound, the arithmetic mean is reported.

[6] = RXFP1 Hu cAMP, read-out: Test A EC50

hepatocyte CLint [1]: 12 µL/min/1e6 cells | Test A Sinf ([2]; RXFP1 Hu cAMP): 101% | microsomal CLint [3]: < 3 µL/min/mg | solubility [4]: > 1000 µM
SMILES: COc1cc(F)c(O[C@H]2CC[C@@](C)(C(=O)O)CC2)cc1C(=O)N[C@@H]1CCC[C@@H]1C(=O)NCC(C)C [Example 66]

hepatocyte CLint [1]: 67 µL/min/1e6 cells | Test A Sinf ([2]; RXFP1 Hu cAMP): 107% | microsomal CLint [3]: 74 µL/min/mg | solubility [4]: 870 µM (≈ 476 µg/mL)
SMILES: COc1cc(F)c(O[C@H]2CC[C@@](C)(C(=O)O)CC2)cc1C(=O)N[C@@H]1CCC[C@@H]1C(=O)NCC1(C)CCCCC1 [Example 64]

hepatocyte CLint [1]: 16 µL/min/1e6 cells | Test A Sinf ([2]; RXFP1 Hu cAMP): 85% | microsomal CLint [3]: 20 µL/min/mg | solubility [4]: 860 µM (≈ 558 µg/mL)
SMILES: COc1cc(F)c(-c2ccc(C(=O)O)c(C)c2)cc1C(=O)N[C@@H]1[C@H]2CC[C@H](C2)[C@@H]1C(=O)Nc1cccc(S(=O)(=O)C(F)(F)F)c1 [Example 246]

hepatocyte CLint [1]: 36 µL/min/1e6 cells | Test A Sinf ([2]; RXFP1 Hu cAMP): 111% | EC50 [2, 6]: 100 nM | microsomal CLint [3]: 53 µL/min/mg | solubility [4]: 240 µM (≈ 159 µg/mL)
SMILES: COc1cc(F)c(-c2ccc(CCC(=O)O)cc2)cc1C(=O)N[C@@H]1[C@H]2CC[C@H](C2)[C@@H]1C(=O)Nc1cccc(S(=O)(=O)C(F)(F)F)c1 [Example 244]

Test B Human Plasma Protein Binding (% free) [5]: 11 % free | hepatocyte CLint [1]: 11 µL/min/1e6 cells | microsomal CLint [3]: 7.6 µL/min/mg | solubility [4]: 840 µM (≈ 434 µg/mL)
SMILES: COc1cc(F)c(O[C@H]2C[C@@](C)(C(=O)O)C2)cc1C(=O)N[C@@H]1[C@H]2CC[C@H](C2)[C@@H]1C(=O)NCC1(C)CCC1 [Example 149, (1S,3s)-3-(2-fluoro-4-methoxy-5-(((1S,2R,3S,4R)-3-(((1-methylcyclobutyl)methyl)carbamoyl)bicyclo[2.2.1]heptan-2-yl)carbamoyl)phenoxy)-1-methylcyclobutane-1-carboxylic acid]

hepatocyte CLint [1]: 19 µL/min/1e6 cells | EC50 [2, 6]: > 50000 nM | microsomal CLint [3]: 11 µL/min/mg | solubility [4]: 610 µM (≈ 316 µg/mL)
SMILES: COc1cc(F)c(O[C@H]2CC[C@@](C)(C(=O)O)CC2)cc1C(=O)N[C@@H]1CCC[C@@H]1C(=O)N[C@@H](C)C1(C)CC1 (racemic) [Example 63]

Second part, the molecule before the results:

SMILES: COc1cc(F)c(CC2CCC(C)(C(=O)O)CC2)cc1C(=O)NC1C2CCC(C2)C1C(=O)NCC1(C)CCC1 [Example 205, (1R,4r)-4-(2-fluoro-4-methoxy-5-(((1S,2R,3S,4R)-3-(((1-methylcyclobutyl)methyl)carbamoyl)bicyclo[2.2.1]heptan-2-yl)carbamoyl)benzyl)-1-methylcyclohexane-1-carboxylic acid]
Test B Human Plasma Protein Binding (% free) [5]: 0.58 % free | hepatocyte CLint [1]: 26 µL/min/1e6 cells | microsomal CLint [3]: 49 µL/min/mg | solubility [4]: 180 µM (≈ 97.7 µg/mL)

SMILES: COc1cc(F)c(O[C@H]2CC[C@@](C)(C(=O)O)CC2)cc1C(=O)N[C@@H]1CCC[C@@H]1C(=O)N[C@H](C)C(C)C [Example 60]
hepatocyte CLint [1]: 11 µL/min/1e6 cells | Test A Sinf ([2]; RXFP1 Hu cAMP): 105% | microsomal CLint [3]: 7 µL/min/mg | solubility [4]: > 1000 µM

SMILES: COc1cc(F)c(O[C@H]2CC[C@@](C)(C(=O)O)CC2)cc1C(=O)N[C@@H]1[C@H]2CC[C@H](C2)[C@@H]1C(=O)NCC1(C)CCC1 [Example 1, (1S,4s)-4-(2-Fluoro-4-methoxy-5-(((1S,2R,3S,4R)-3-(((1-methylcyclobutyl)methyl)carbamoyl)bicyclo[2.2.1]heptan-2-yl)carbamoyl)phenoxy)-1-methylcyclohexane-1-carboxylic acid]
Test B Human Plasma Protein Binding (% free) [5]: 4.3 % free | solubility [4]: > 500 µM

SMILES: COc1cc(F)c(O[C@H]2CC[C@@](C)(C(=O)O)CC2)cc1C(=O)N[C@@H]1[C@H]2CC[C@H](C2)[C@@H]1C(=O)N[C@@H](C)C(C)(C)C [Example 45]
Test B Human Plasma Protein Binding (% free) [5]: 6.9 % free | hepatocyte CLint [1]: 12 µL/min/1e6 cells | microsomal CLint [3]: 15 µL/min/mg | solubility [4]: 960 µM (≈ 525 µg/mL)

SMILES: CC1(CNC(=O)[C@H]2[C@@H]3CC[C@@H](C3)[C@H]2NC(=O)c2cc(O[C@H]3CC[C@@](C)(C(=O)O)CC3)c(F)cc2OCF)CCC1 [Example 4, (1S,4s)-4-(2-Fluoro-4-(fluoromethoxy)-5-(((1S,2R,3S,4R)-3-(((1-methylcyclobutyl)methyl)carbamoyl)bicyclo[2.2.1]heptan-2-yl)carbamoyl)phenoxy)-1-methylcyclohexane-1-carboxylic acid]
hepatocyte CLint [1]: 6.9 µL/min/1e6 cells | Test A Sinf ([2]; RXFP1 Hu cAMP): 103% | EC50 ([2]; Test A EC50, RXFP1 Hu cAMP): 4.7 nM | microsomal CLint [3]: 36 µL/min/mg | solubility [4]: > 1000 µM

SMILES: COc1cc(F)c(O[C@H]2CC[C@@](C)(C(=O)O)CC2)cc1C(=O)N[C@H]1[C@@H]2CC[C@@H](C2)[C@H]1C(=O)NCC1(C)CCC1 [Example 3, (1R,4s)-4-(2-Fluoro-4-methoxy-5-(((1R,2S,3R,4S)-3-(((1-methylcyclobutyl)methyl)carbamoyl)bicyclo[2.2.1]heptan-2-yl)carbamoyl)phenoxy)-1-methylcyclohexane-1-carboxylic acid]
Test B Human Plasma Protein Binding (% free) [5]: 3.7 % free | solubility [4]: 860 µM (≈ 468 µg/mL)

SMILES: COc1cc(F)c(O[C@H]2CC[C@@](C)(C(=O)O)CC2)cc1C(=O)N[C@@H]1CCC[C@@H]1C(=O)NC(C(C)C)C(C)C [Example 62]
hepatocyte CLint [1]: 55 µL/min/1e6 cells | Test A Sinf ([2]; RXFP1 Hu cAMP): 93% | EC50 [2, 6]: > 4200 nM | microsomal CLint [3]: 94 µL/min/mg | solubility [4]: > 1000 µM

SMILES: COc1cc(F)c(O[C@H]2CC[C@@](C)(C(N)=O)CC2)cc1C(=O)N[C@@H]1[C@H]2CC[C@H](C2)[C@@H]1C(=O)NCC(C)(C)C [Example 53, (1R,2S,3R,4S)-3-(5-(((1s,4S)-4-Carbamoyl-4-methylcyclohexyl)oxy)-4-fluoro-2-methoxybenzamido)-N-neopentylbicyclo[2.2.1]heptane-2-carboxamide]
hepatocyte CLint [1]: 150 µL/min/1e6 cells | Test A Sinf ([2]; RXFP1 Hu cAMP): 122% | EC50 [2, 6]: 160 nM | microsomal CLint [3]: 130 µL/min/mg | solubility [4]: 39 µM (≈ 20.7 µg/mL)

SMILES: COc1cc(F)c(O[C@H]2CC[C@@](C)(C(=O)O)CC2)cc1C(=O)N[C@@H]1CCC[C@@H]1C(=O)NCC(C)(C)C [Example 57, (1S,4s)-4-(2-Fluoro-4-methoxy-5-(((1R,2S)-2-(neopentylcarbamoyl)cyclopentyl)carbamoyl)phenoxy)-1-methylcyclohexane-1-carboxylic acid]
hepatocyte CLint [1]: 11 µL/min/1e6 cells | Test A Sinf ([2]; RXFP1 Hu cAMP): 99% | EC50 [2, 6]: 660 nM | microsomal CLint [3]: 4.9 µL/min/mg | solubility [4]: > 1000 µM

SMILES: COc1cc(F)c(O[C@H]2CC[C@@H](C(=O)O)CC2)cc1C(=O)N[C@@H]1[C@H]2CC[C@H](C2)[C@@H]1C(=O)Nc1cc(C(F)(F)F)ccc1Cl [Example 26]
hepatocyte CLint [1]: 38 µL/min/1e6 cells | Test A Sinf ([2]; RXFP1 Hu cAMP): 105% | EC50 [2, 6]: 190 nM | microsomal CLint [3]: 31 µL/min/mg | solubility [4]: 250 µM (≈ 157 µg/mL)

SMILES: COc1cc(F)c(O[C@H]2CC[C@@](C)(C(=O)O)CC2)cc1C(=O)N[C@@H]1CCC[C@@H]1C(=O)N[C@@H](C)C(C)(C)C [Example 61]
hepatocyte CLint [1]: 13 µL/min/1e6 cells | Test A Sinf ([2]; RXFP1 Hu cAMP): 96% | EC50 [2, 6]: 15000 nM | microsomal CLint [3]: 7.4 µL/min/mg | solubility [4]: > 1000 µM

SMILES: COc1cc(F)c(O[C@H]2CC[C@@](C)(C(=O)O)CC2)cc1C(=O)N[C@@H]1CCC[C@@H]1C(=O)N[C@@H](C)C(C)C [Example 55, (1S,4s)-4-(2-Fluoro-4-methoxy-5-(((1R,2S)-2-(((S)-3-methylbutan-2-yl)carbamoyl)cyclopentyl)carbamoyl)phenoxy)-1-methylcyclohexane-1-carboxylic acid]
hepatocyte CLint [1]: 16 µL/min/1e6 cells | Test A Sinf ([2]; RXFP1 Hu cAMP): 100% | EC50 [2, 6]: > 8400 nM | microsomal CLint [3]: < 3 µL/min/mg | solubility [4]: > 1000 µM
